Drawing on PubChem BioAssay AID463199 (Broad Institute, 2010), this text covers AC50 for 87 compounds.

This test relates to S. cerevisiae Burl-1 ts mutant growth, BacTiter-Glo, 38.5C 24 h. Kind of test: growth induction of Burl-1 ts yeast mutant, dose response, counter-screen for SUMOylation pathway inhibitor project, whole organism, S. cerevisiae, luminescence (AID 463199).

Calls of active or inactive are those of the source.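 The calls were made as follows: active = AC50, the dose giving half-maximal effect, exceeds a fixed cutoff for a compound that rescues yeast growth under heat; inactive = the rest, inconclusive results apart.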 Some results are limits rather than exact numbers.

As to `O=C(Nc1ccccc1F)C1CCN(C(=O)Cc2ccccc2)CC1`, the AC50 was > 42 µM (inactive). To `CCN(CC)c1ccc(/C=N/NC(=O)OC(C)(C)C)cc1` belongs > 42 µM (inactive); to `CN(Cc1ccc(C(C)(C)C)cc1)C(=O)c1ccc2c(=O)n3c(nc2c1)CCC3`, > 42 µM (inactive); to `O=C(c1ccc(CS(=O)(=O)c2ccccc2)o1)N1CCOCC1`, > 42 µM (inactive). On to `Cc1ccc(S(=O)(=O)Cc2ccc(C(=O)N3CCN(c4ccccn4)CC3)o2)cc1`, for which the AC50 is > 42 µM (inactive).

`O=C(CCNC(=O)c1ccccc1)Nc1cccnc1`: the AC50 is > 42 µM (inactive). In the case of `O=C(NCCCN1CCN(c2ccccc2F)CC1)Nc1ccccc1[N+](=O)[O-]`, the AC50 was 25.4 µM.

With `CN(c1ccccc1)c1ccc(/C=C/[N+](=O)[O-])cc1`, the AC50 is > 42 µM (inactive).

Take `CC(C)C1=CC(=Nc2ccc(S(N)(=O)=O)cc2)C=C(C(C)C)C1=O`: the AC50 was > 42 µM (inactive). For `Cc1ccc(F)cc1NS(=O)(=O)c1ccc(Cl)s1`, the AC50 is > 42 µM (inactive). Take `COc1ccc(C2CC3(CC(C)(C)NC(=S)N3)Oc3cc(O)cc(C)c32)cc1` (configuration not stated): the AC50 was > 42 µM (inactive). As for `COc1ccc(C(C)=O)cc1CN(c1ccccc1OC)S(=O)(=O)c1cccs1`, the AC50 was > 42 µM (inactive). As for `COc1ccccc1-n1nnnc1SCC(=O)Nc1ccc(C)c(N)c1`, the AC50 is > 42 µM (inactive). Turning to `Cc1cc(CNC(=O)C2CCC(=O)N(Cc3ccccc3F)C2)on1` (configuration not stated), the AC50 was > 42 µM (inactive). For `O=c1cnc2cc([N+](=O)[O-])ccc2[nH]1`, the AC50 is > 42 µM (inactive). Take `O=C(Nc1ccc([N+](=O)[O-])cn1)c1ccc2c(c1)OCO2`: the AC50 was > 42 µM (inactive). Regarding `Cc1c(C(=O)NC(C)c2ccc(-n3ccnc3)cc2)cccc1[N+](=O)[O-]` (configuration not stated), the AC50 was > 42 µM (inactive). As to `COc1ccc(C(=O)Nn2c(SCC(=O)NCc3ccccc3)nc3ccccc3c2=O)cc1`, the AC50 was > 42 µM (inactive). As to `Cc1cc(NC(=O)c2ccccc2F)n(C(C)(C)C)n1`, the AC50 was > 42 µM (inactive). To `CCCCn1c(SCC(=O)Nc2cc(C)on2)nnc1-c1ccco1` belongs > 42 µM (inactive); to `Cc1cc([N+](=O)[O-])nn1CC(=O)NNC(=S)Nc1ccc([N+](=O)[O-])cc1`, > 21 µM (inactive); to `CSc1ncc2ncn(C3OC(CO)C(O)C3O)c2n1` (configuration not stated), > 42 µM (inactive).

Take `CCOC(=O)c1sc(N/N=C/c2ccc(N(C)C)cc2)nc1C`: the AC50 is > 42 µM (inactive). With `CCOC(=O)Nc1sc(=S)n(C)c1C`, the AC50 was > 42 µM (inactive). In the case of `[N-]=[N+]=NCCN1CCC(O)CCC1=O` (configuration not stated), the AC50 is > 42 µM (inactive). With `COc1ccccc1CNCc1cc(OC)c(OC)c(OC)c1` the figure was > 42 µM (inactive); with `COCCN(C(=O)C1CC1)c1nnc(-c2ccc(C)cc2)s1`, > 42 µM (inactive); with `CCn1c(SC(=O)NC2CCCCC2)nnc1-c1cccs1`, > 42 µM (inactive). In the case of `O=C(c1ccco1)N1CCN(C2CC(=O)N(c3ccc(F)c(Cl)c3)C2=O)CC1` (configuration not stated), the AC50 is > 42 µM (inactive).

Take `CC(C)c1ccc(C2C(C(=O)c3ccco3)=C(O)C(=O)N2CCN2CCOCC2)cc1` (configuration not stated): the AC50 is > 42 µM (inactive). With `Cc1nc2sc(C(c3ccccc3)N3CCC(O)CC3)c(O)n2n1` (configuration not stated), the AC50 was > 42 µM (inactive).

Regarding `O=C(Nc1ccc(F)cc1F)N1CCCN(c2ccc(C(F)(F)F)cn2)CC1`, the AC50 is > 42 µM (inactive).

`CN(C)/C=N/NC(=O)c1ccccc1`: the AC50 is > 42 µM (inactive).

As for `CC1(C)C2CC=C(/C=N/NC(=S)Nc3cccnc3)C1C2` (configuration not stated), the AC50 is > 42 µM (inactive). To `C[C@H]1O[C@H]1P(=O)(O)O` belongs > 42 µM (inactive); to `CC(=O)/C(N)=N/Nc1cccc(Cl)c1`, > 42 µM (inactive); to `O=C(CN(CC1CCCO1)C(=O)CNS(=O)(=O)c1ccc(F)cc1)NCc1ccccc1` (configuration not stated), > 42 µM (inactive). As for `Cc1nc(C)n(CC(=O)N2CCCC(C(=O)c3cccc4ccccc34)C2)n1` (configuration not stated), the AC50 is > 42 µM (inactive). On to `Cc1cnc(C(=O)OC(C(=O)c2c[nH]c3ccccc23)c2ccccc2)cn1` (configuration not stated), for which the AC50 was > 42 µM (inactive). On to `Cc1ccc(C(C(=O)Nc2ccc3c(c2)OCO3)N(C)C(=O)/C=C\c2ccc3c(c2)OCO3)cc1` (configuration not stated), for which the AC50 was > 42 µM (inactive). Regarding `Cc1nc2ccc(NC(=O)c3ccc(S(=O)(=O)N4CCOCC4)cc3)cc2s1`, the AC50 was > 42 µM (inactive). On to `COC(=O)[C@@H](NC(=O)Nc1ccc(S(N)(=O)=O)cc1)C(C)C`, for which the AC50 was > 42 µM (inactive). Regarding `O=C(NCC(c1cccs1)N1CCOCC1)c1ccccc1NS(=O)(=O)c1cc([N+](=O)[O-])ccc1Cl` (configuration not stated), the AC50 was > 42 µM (inactive). For `COc1cccc(C2CC(c3cccc(NS(C)(=O)=O)c3)=NN2C(=O)c2ccccc2)c1OC` (configuration not stated), the AC50 is > 42 µM (inactive).

Regarding `COc1cc(/C=N/NC(=S)NCc2ccco2)cc(OC)c1OC`, the AC50 is > 42 µM (inactive).

Take `CN(CCOc1ccc(Cl)cc1)CC(=O)Nc1ccc(OC(F)F)cc1`: the AC50 was > 42 µM (inactive). As to `Cn1c(=NC(=O)COc2ccccc2)sc2cc(F)cc(F)c21`, the AC50 is > 42 µM (inactive). Consider `CN(C(=S)NC1=CCS(=O)(=O)C1)C1CCCCC1`, for which the AC50 is > 42 µM (inactive). For the compound `CC(C)C1OC2(C)OC(=N)C1(C#N)C(C#N)(C#N)C2c1ccccc1` (configuration not stated), the AC50 is > 42 µM (inactive).

`O=C(/C=C/c1ccc(F)cc1)NCC1(c2ccccc2)CCOCC1`: the AC50 is > 42 µM (inactive).

Consider `CC1(C)Cc2nc3sc4c(OCc5ccccc5)ncnc4c3cc2CO1`, for which the AC50 was > 42 µM (inactive). Turning to `CCc1cc2c(=O)c(-c3nc4ccccc4[nH]3)coc2c(CN2CCCCC2)c1O`, the AC50 is > 42 µM (inactive).

Regarding `COc1ccc(-n2nc(C(=O)NCC(=O)N3CCCC3)c3ccccc3c2=O)c(OC)c1`, the AC50 is > 42 µM (inactive). As for `O=C(CSc1nc2ncccc2[nH]1)NC1CCCCC1`, the AC50 is > 42 µM (inactive). For the compound `CCNC(=O)/C(C#N)=C/c1c(N2CCCCCC2)nc2ccccn2c1=O`, the AC50 was > 42 µM (inactive). Turning to `O=c1c2c(ncn1Cc1ccccc1)nc1n2CCC1`, the AC50 is > 42 µM (inactive). In the case of `O=S(=O)(NCc1ccc(Cl)cc1)c1cnc[nH]1`, the AC50 is > 42 µM (inactive). Turning to `O=C(CCc1ccccc1)NNC(=O)c1ccc(Br)cc1`, the AC50 is > 42 µM (inactive). Regarding `CCn1c(C)c(C(C)=O)c(N2CCN(c3ccc(F)cc3)CC2)nc1=S`, the AC50 is > 42 µM (inactive). On to `CCOC(=O)c1oc2c(c1C)C(=O)CCC2`, for which the AC50 is > 42 µM (inactive). Turning to `COc1ccc2[nH]cc(CCNS(=O)(=O)c3ccc(C)cc3)c2c1`, the AC50 was > 42 µM (inactive). To `O=C(N=C1SC2CS(=O)(=O)CC2N1c1ccc(F)c(Cl)c1)C1CC1` (configuration not stated) belongs > 42 µM (inactive); to `CC1=CC(=O)C(C(C)C)=C/C1=N/OS(=O)(=O)c1ccccc1`, > 50 µM (inactive). To `COCCN(C(=O)c1csnn1)C(C(=O)NC1CCCCC1)c1ccccc1` (configuration not stated) belongs > 42 µM (inactive); to `COc1ccc(CCNC(=O)CC2C(=O)NCCN2CC(C)(C)C)cc1` (configuration not stated), > 42 µM (inactive).

Consider `O=S(=O)(Nc1ccc(-c2nc3cccnc3s2)cc1)c1cc(F)ccc1F`, for which the AC50 is > 42 µM (inactive). For `Cc1nc(N2CCN(c3ccccn3)CC2)c2c(C)c(C(=O)N3CCN(c4ccccc4F)CC3)sc2n1`, the AC50 was > 42 µM (inactive). Regarding `O=C(c1cc(N2C(=O)C3C4CCC(C4)C3C2=O)ccc1Cl)N1CCN(c2ccccc2)CC1` (configuration not stated), the AC50 is > 42 µM (inactive).

With `O=c1c2ccccc2ncn1Cc1ccc(Cl)cc1`, the AC50 is > 42 µM (inactive).

As for `CCC(NC(=O)c1ccccc1NC(=O)c1ccco1)C(=O)NC1CCCCC1` (configuration not stated), the AC50 is > 42 µM (inactive). For `O=C(OCC(=O)N1CCN(Cc2ccccc2)CC1)c1ccc(Cl)cc1`, the AC50 was > 42 µM (inactive). As to `Cc1cc(C)c[n+](-c2nc3ccccc3nc2[N-]S(=O)(=O)c2ccc(Br)s2)c1`, the AC50 was > 42 µM (inactive). For the compound `Cc1ccc(-n2c(SCC(=O)N(C)C3CCS(=O)(=O)C3)nc3ccccc3c2=O)cc1` (configuration not stated), the AC50 is > 42 µM (inactive). For `Cc1cc(C)c(OCC(=O)N/N=C/c2ccco2)c(C)c1`, the AC50 was > 42 µM (inactive).

For the compound `Cc1cnc(C(=O)OCC(=O)Nc2ccc(C)c(S(=O)(=O)N(C)C)c2)cn1`, the AC50 was > 42 µM (inactive). For `O=C(OCC#CCSc1nnc(-c2ccccc2)o1)c1cc2ccccc2o1`, the AC50 was > 42 µM (inactive). In the case of `CCOC(=O)C1(Cc2cccc(Cl)c2)CCCN(C(=O)CCOC)C1` (configuration not stated), the AC50 was > 42 µM (inactive). For `CCOC(=O)c1ccccc1NC(=O)C1CC(=O)N(C2CCCCC2)C1` (configuration not stated), the AC50 is > 42 µM (inactive). For `CN(C)S(=O)(=O)c1ccc(Cl)c(NC(=O)CN2C(=O)NC(C)(C3CC3)C2=O)c1` (configuration not stated), the AC50 is > 42 µM (inactive). With `C/C=C\C=C/C(=O)Nc1cccc(C2=NOC3(C2)C[C@@H](C(N)=O)N(C(=O)c2ccccc2)C3)c1` (some centres not stated) the figure was > 42 µM (inactive). Turning to `O=C(CCSc1ccccc1)NNC(=O)c1ccccc1F`, the AC50 was > 42 µM (inactive). For `O=S(=O)(NCC1CCCO1)c1cc(Cl)ccc1Br` (configuration not stated), the AC50 was > 42 µM (inactive).

In the case of `O=S(=O)(NCc1ccccc1)c1ccc(S(=O)(=O)N(Cc2ccccn2)Cc2ccco2)cc1`, the AC50 is 16.7 µM. For the compound `COc1cc(/C=C(\NC(=O)c2ccccc2)C(=O)Nc2nccs2)ccc1OC(C)=O`, the AC50 was > 42 µM (inactive). Take `CCCCNC(=O)C1C2C=CC3(CN(Cc4ccc(C)cc4)C(=O)C13)O2` (configuration not stated): the AC50 was > 42 µM (inactive).

For `CCOC(=O)c1c(C)[nH]c(O)c1C=Nc1ccccc1`, the AC50 was > 42 µM (inactive). Take `CCOC(=O)Cn1c(=O)n(Cc2ccco2)c(=O)c2ccc(C(=O)NCCc3ccccc3)cc21`: the AC50 was > 42 µM (inactive).
